# Source: patent US7423157B2, “Substituted benzimidazoles and their use for inducing apoptosis” (Basilea Pharmaceutica AG, priority 2004, dated 2008)
# What was measured:
# Jurkat [1] = test: Hoechst 33342 nuclear staining, Jurkat; format: cell-based, human; conditions: 48 h
# Protocol: (§1) This assay is performed in 96 well tissue culture plates. Appropriate number of cells (adherent cells: 3-5*10^3, suspension cells: 8-10*10^3) are being seeded out in 80 μl complete medium. Adherent cells are incubated for 24 h for proper spreading out before addition of test compounds while suspension cells are immediately treated with test compounds after seeding out. The test compounds are added in 20 μl complete medium containing max 5% DMSO. The final compound concentrations in the assays are 10 μM, 3 μM, 1 μM and 0.3 μM, respectively. […] The assay plates are then further incubated for 30 minutes and subsequently analyzed with a standard inverted fluorescence microscope.
# (§2) The readout allows the determination of the fraction of apoptotic nuclei as well as other morphological criteria specific for apoptosis as a function of the treatment. The following scores are used: 0 relating to no activity, 1 relating to weak activity comprising less than 50% of the cells and score 2 relating to strong activity comprising more than 50% of the cells.
# Jily = test: Hoechst 33342 nuclear staining, Jily; format: cell-based; conditions: 48 h
# Protocol: as §1, §2
# PBLs = test: Hoechst 33342 nuclear staining, PBLs; format: cell-based; design: key: 0 = no activity, 1 = weak (<50% of cells), 2 = strong (>50% of cells); conditions: 48 h
# Protocol: as §1, §2
# HeLa [2] = test: Hoechst 33342 nuclear staining, HeLa; format: cell-based, human; conditions: 48 h
# Protocol: as §1, §2
# H460 = test: Hoechst 33342 nuclear staining, H460; format: cell-based, human; conditions: H460, 48 h
# Protocol: as §1, §2
# MRC5 = test: Hoechst 33342 nuclear staining, MRC5; format: cell-based; design: key: 0 = no activity, 1 = weak (<50% of cells), 2 = strong (>50% of cells); conditions: MRC5, 48 h
# Protocol: as §1, §2
# Jurkat [3] = test: MTS proliferation assay, Jurkat; format: cell-based, human; conditions: 72 h incubation
# Protocol: (§3) The assay is performed in 96 well tissue culture plates. The cells (range: 1.5*10^3-10^4) are seeded out in 80 μl complete medium 24 h prior to compound treatment. The test compounds are added in 20 μl complete medium containing max 5% DMSO. The final compound concentrations in the assays are 10 μM, 3 μM, 1 μM and 0.3 μM, respectively. The assay plates are incubated for 72 h at culture conditions. The MTS reagent is prepared according to the manufacturer's protocol (Promega G1111). 20 μl MTS reagent are added to each well, the assay plates are quickly spun and incubated for another 3 h at culture conditions. Subsequently, the plates are shortly shaked and absorption measured with a microplate-reader at 492 nm.
# HeLa [4] = test: MTS proliferation assay, HeLa; format: cell-based, human; conditions: 72 h incubation
# Protocol: as §3
Compound,Hoechst 33342 nuclear staining score (Jurkat [1]; conc. 0.3 (μM)),Hoechst 33342 nuclear staining score (Jurkat [1]; conc. 1 (μM)),Hoechst 33342 nuclear staining score (Jurkat [1]; conc. 3 (μM)),Hoechst 33342 nuclear staining score (Jurkat [1]; conc. 10 (μM)),Hoechst 33342 nuclear staining score (Jily; conc. 0.3 (μM)),Hoechst 33342 nuclear staining score (Jily; conc. 1 (μM)),Hoechst 33342 nuclear staining score (Jily; conc. 3 (μM)),Hoechst 33342 nuclear staining score (Jily; conc. 10 (μM)),Hoechst 33342 nuclear staining score (PBLs; conc. 0.3 (μM)),Hoechst 33342 nuclear staining score (PBLs; conc. 1 (μM)),Hoechst 33342 nuclear staining score (PBLs; conc. 3 (μM)),Hoechst 33342 nuclear staining score (PBLs; conc. 10 (μM)),Hoechst 33342 nuclear staining score (HeLa [2]; conc. 0.3 (μM)),Hoechst 33342 nuclear staining score (HeLa [2]; conc. 1 (μM)),Hoechst 33342 nuclear staining score (HeLa [2]; conc. 3 (μM)),Hoechst 33342 nuclear staining score (HeLa [2]; conc. 10 (μM)),Hoechst 33342 nuclear staining score (H460; conc. 0.3 (μM)),Hoechst 33342 nuclear staining score (H460; conc. 1 (μM)),Hoechst 33342 nuclear staining score (H460; conc. 3 (μM)),Hoechst 33342 nuclear staining score (H460; conc. 10 (μM)),also measured
COc1cccc(/C=C/C(=O)Cn2c(-n3ncnc3N)nc3ccccc32)c1 [Example 9],0,0,0,2 (score 2 relating to strong activity comprising more than 50% of the cells),0,0,0,2 (score 2 relating to strong activity comprising more than 50% of the cells),0,0,0,2 (score 2 relating to strong activity comprising more than 50% of the cells),0,0,0,2 (score 2 relating to strong activity comprising more than 50% of the cells),0,0,0,2 (score 2 relating to strong activity comprising more than 50% of the cells),Hoechst 33342 nuclear staining score (MRC5; conc. 0.3 (μM)): 0; Hoechst 33342 nuclear staining score (MRC5; conc. 1 (μM)): 0; Hoechst 33342 nuclear staining score (MRC5; conc. 3 (μM)): 0; Hoechst 33342 nuclear staining score (MRC5; conc. 10 (μM)): 0; IC50 (Jurkat [3]): > 1 µM; IC50 (HeLa [4]): > 1 µM
"COc1ccc(C(=O)Cn2c(-n3ccc(N)n3)nc3ccccc32)cc1 [Example 2, 5-Amino-2-(1-[4-methoxyphenylcarbonylmethyl]benzimidazol-2-yl)-pyrazole]",0,0,2 (score 2 relating to strong activity comprising more than 50% of the cells),2 (score 2 relating to strong activity comprising more than 50% of the cells),0,2 (score 2 relating to strong activity comprising more than 50% of the cells),2 (score 2 relating to strong activity comprising more than 50% of the cells),2 (score 2 relating to strong activity comprising more than 50% of the cells),0,0,0,2 (score 2 relating to strong activity comprising more than 50% of the cells),0,0,2 (score 2 relating to strong activity comprising more than 50% of the cells),2 (score 2 relating to strong activity comprising more than 50% of the cells),0,0,2 (score 2 relating to strong activity comprising more than 50% of the cells),2 (score 2 relating to strong activity comprising more than 50% of the cells),Hoechst 33342 nuclear staining score (MRC5; conc. 0.3 (μM)): 0; Hoechst 33342 nuclear staining score (MRC5; conc. 1 (μM)): 0; Hoechst 33342 nuclear staining score (MRC5; conc. 3 (μM)): 0; Hoechst 33342 nuclear staining score (MRC5; conc. 10 (μM)): 0
CS(=O)(=O)O.Nc1ccc(C(=O)Cn2c(-n3ncnc3N)nc3ccccc32)cn1 [Example 15],2 (score 2 relating to strong activity comprising more than 50% of the cells),2 (score 2 relating to strong activity comprising more than 50% of the cells),2 (score 2 relating to strong activity comprising more than 50% of the cells),2 (score 2 relating to strong activity comprising more than 50% of the cells),2 (score 2 relating to strong activity comprising more than 50% of the cells),2 (score 2 relating to strong activity comprising more than 50% of the cells),2 (score 2 relating to strong activity comprising more than 50% of the cells),2 (score 2 relating to strong activity comprising more than 50% of the cells),0,0,0,0,2 (score 2 relating to strong activity comprising more than 50% of the cells),2 (score 2 relating to strong activity comprising more than 50% of the cells),2 (score 2 relating to strong activity comprising more than 50% of the cells),2 (score 2 relating to strong activity comprising more than 50% of the cells),2 (score 2 relating to strong activity comprising more than 50% of the cells),2 (score 2 relating to strong activity comprising more than 50% of the cells),2 (score 2 relating to strong activity comprising more than 50% of the cells),2 (score 2 relating to strong activity comprising more than 50% of the cells),Hoechst 33342 nuclear staining score (MRC5; conc. 0.3 (μM)): 1 (1 relating to weak activity comprising less than 50% of the cells); Hoechst 33342 nuclear staining score (MRC5; conc. 1 (μM)): 1 (1 relating to weak activity comprising less than 50% of the cells); Hoechst 33342 nuclear staining score (MRC5; conc. 3 (μM)): 1 (1 relating to weak activity comprising less than 50% of the cells); Hoechst 33342 nuclear staining score (MRC5; conc. 10 (μM)): 1 (1 relating to weak activity comprising less than 50% of the cells)
